According to PubChem BioAssay (NCI):
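Results reflect a 48-hour exposure of cells in 96-well plates to compound at five concentrations. GI50 marks 50% less growth. TGI marks complete inhibition of growth.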

Columns and labels:
Experiment in all cases: inhibition of tumour cell growth, NCI panel, 48 h
[1] = test system: U251 CNS
[2] = test system: BT-549 breast
[3] = test system: SK-MEL-2 melanoma
[4] = test system: MDA-MB-435
[5] = test system: DU-145 prostate
[6] = test system: SK-OV-3 ovarian
[7] = test system: UACC-257 melanoma
[8] = test system: K-562 leukemia
[9] = test system: UACC-62 melanoma
[10] = test system: KM12 colon
[11] = test system: OVCAR-5 ovarian
[12] = test system: LOX IMVI melanoma
[13] = test system: ACHN renal
[14] = test system: EKVX NSCLC
[15] = test system: MALME-3M melanoma
[16] = test system: MDA-MB-231 breast
[17] = test system: UO-31 renal
[18] = test system: OVCAR-8 ovarian
[19] = test system: T-47D breast
[20] = test system: SW-620 colon
[21] = test system: A549 NSCLC
[22] = test system: SF-268 CNS
[23] = test system: OVCAR-3 ovarian
[24] = test system: SN12C renal
[25] = test system: TK-10 renal
[26] = test system: SF-539 CNS
[27] = test system: HCC-2998 colon

Structure (SMILES): CC(=O)Nc1c(Br)cc2c(c1Br)Cc1cc(Br)ccc1-2
- GI50 [1]: 3.32 µM
- TGI [1]: 12.4 µM
- GI50 [2]: 2.83 µM
- TGI [2]: 13.4 µM
- GI50 [3]: 12.6 µM
- TGI [3]: 32.7 µM
- GI50 [4]: 4.15 µM
- TGI [4]: 21.1 µM
- GI50 [5]: 6.44 µM
- TGI [5]: 21.4 µM
- GI50 [6]: 4.22 µM
- TGI [6]: 17.2 µM
- GI50 [7]: 19.3 µM
- TGI [7]: > 100 µM
- GI50 [8]: 59.9 µM
- TGI [8]: > 100 µM
- GI50 [9]: 11.1 µM
- TGI [9]: > 100 µM
- GI50 [10]: 11.6 µM
- TGI [10]: 55.1 µM
- GI50 [11]: 12 µM
- TGI [11]: 27 µM
- GI50 [12]: 2.28 µM
- TGI [12]: 6.6 µM
- GI50 [13]: 3.17 µM
- TGI [13]: 14.1 µM
- GI50 [14]: 0.392 µM
- TGI [14]: 13.8 µM
- GI50 [15]: 7.26 µM
- TGI [15]: 53.4 µM
- GI50 [16]: 5.11 µM
- TGI [16]: 20.3 µM
- GI50 [17]: 0.581 µM
- TGI [17]: 13.7 µM
- GI50 [18]: 4.62 µM
- TGI [18]: 18.8 µM
- GI50 [19]: 3.34 µM
- TGI [19]: > 100 µM
- GI50 [20]: 3.97 µM
- TGI [20]: 15.6 µM
- GI50 [21]: 3.94 µM
- TGI [21]: 14.8 µM
- GI50 [22]: 9.04 µM
- TGI [22]: 41 µM
- GI50 [23]: 8.42 µM
- TGI [23]: 21.1 µM
- GI50 [24]: 4.67 µM
- TGI [24]: 18.9 µM
- GI50 [25]: 12.4 µM
- TGI [25]: 26.1 µM
- GI50 [26]: 13.6 µM
- TGI [26]: 33.2 µM
- GI50 [27]: 3.01 µM
- TGI [27]: 11.8 µM
